ChEMBL document CHEMBL1201862, “PubChem BioAssay data set” (2004)
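Growth conditions: 96-well plates. Treatment: test compound, 48 hours, 5 concentrations. Analysis: linear interpolation between bracketing concentrations; unreached endpoints set to highest concentration. GI50 is the concentration that inhibits growth by half.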 Calls of active or inactive are those of the source. Rule as the data show it: active = GI50 up to about 1.1 µM and inactive = higher.

Columns and labels:
Assay in all cases: inhibition of tumour cell growth, NCI panel, 48 h
[1] = tested on: UO-31
[2] = tested on: MDA-N
[3] = tested on: SK-OV-3
[4] = tested on: MCF7
[5] = tested on: HL-60
[6] = tested on: SNB-75
[7] = tested on: UACC-62
[8] = tested on: HCT-15
[9] = tested on: LOX IMVI
[10] = tested on: DU-145
[11] = tested on: OVCAR-5
[12] = tested on: SF-295
[13] = tested on: HCT-116
[14] = tested on: 786-0
[15] = tested on: OVCAR-3
[16] = tested on: Malme-3M
[17] = tested on: MOLT-4
[18] = tested on: NCI-H522
[19] = tested on: HOP-92
[20] = tested on: BT-549

| SMILES | GI50 [1] | GI50 [2] | GI50 [3] | GI50 [4] | GI50 [5] | GI50 [6] | GI50 [7] | GI50 [8] | GI50 [9] | GI50 [10] | GI50 [11] | GI50 [12] | GI50 [13] | GI50 [14] | GI50 [15] | GI50 [16] | GI50 [17] | GI50 [18] | GI50 [19] | GI50 [20] |
| --- | --- | --- | --- | --- | --- | --- | --- | --- | --- | --- | --- | --- | --- | --- | --- | --- | --- | --- | --- | --- |
| O=[N+]([O-])c1ccc(/C=C/c2cc(-c3ccccc3)nc3ccc4ccccc4c23)cc1 | > 100 µM (inactive) | > 100 µM (inactive) | > 100 µM (inactive) | 57 µM (inactive) | > 100 µM (inactive) | 16.9 µM (inactive) | > 100 µM (inactive) | > 100 µM | > 100 µM (inactive) | > 100 µM (inactive) | > 100 µM (inactive) | > 100 µM (inactive) | > 100 µM (inactive) | > 100 µM (inactive) | > 100 µM (inactive) | > 100 µM (inactive) | > 100 µM (inactive) |  |  |  |
| Fc1ccc(NCn2nc(COc3ccccc3Cl)n(/N=C/c3ccc(-c4ccc(Cl)cc4Cl)o3)c2=S)cc1Cl | 32.9 µM (inactive) | 38.5 µM (inactive) | 46.6 µM (inactive) | 26.7 µM (inactive) | 15.8 µM (inactive) |  |  | 26.7 µM | 23.9 µM (inactive) | 47.6 µM (inactive) | > 100 µM (inactive) | 33 µM (inactive) | 28.4 µM (inactive) | 27 µM (inactive) | 37.9 µM (inactive) |  | 16.1 µM (inactive) | 36.7 µM (inactive) |  |  |
| COC(=O)[C@@H]1C=C[C@@H](C#N)n2c(=O)n(-c3ccccc3)c(=O)n21 | 41.9 µM (inactive) |  | 47.5 µM (inactive) | 19.5 µM (inactive) |  | 26.7 µM (inactive) | 36.6 µM (inactive) | 30.1 µM | 10.6 µM (inactive) | 25.5 µM (inactive) | 29.4 µM (inactive) | 23.8 µM (inactive) | 24.5 µM (inactive) | 25.2 µM (inactive) | 13.9 µM (inactive) |  | 34.7 µM (inactive) | 14.8 µM (inactive) | 45.4 µM (inactive) | 34 µM (inactive) |
| [O-][n+]1c(-c2ccccc2)oc2ccccc21 | 13.1 µM (inactive) |  | > 67.5 µM (inactive) |  | 5.28 µM (inactive) | 16.7 µM (inactive) | 8.69 µM (inactive) | 6.12 µM | 3.07 µM (inactive) |  | 33.8 µM (inactive) | 14 µM (inactive) | 13.1 µM (inactive) | 22.6 µM (inactive) | 18.5 µM (inactive) | 13 µM (inactive) | > 69.7 µM (inactive) | 12 µM (inactive) | > 100 µM (inactive) |  |
| CN(C)c1nncc2[nH]cnc12 | > 100 µM (inactive) |  |  | > 100 µM (inactive) | > 100 µM (inactive) | > 100 µM (inactive) | > 100 µM (inactive) | > 100 µM |  | > 100 µM (inactive) | > 100 µM (inactive) | > 100 µM (inactive) | > 100 µM (inactive) | > 100 µM (inactive) | > 100 µM (inactive) |  | > 100 µM (inactive) |  |  | > 100 µM (inactive) |
| O=C1CCN/C(=N\C(=O)C(F)(F)F)N1CCc1c[nH]c2ccccc12 | > 100 µM (inactive) | > 100 µM (inactive) | > 100 µM (inactive) | > 100 µM (inactive) | > 100 µM (inactive) |  | > 100 µM (inactive) | > 100 µM | > 100 µM (inactive) | > 100 µM (inactive) | > 100 µM (inactive) | > 100 µM (inactive) | > 100 µM (inactive) | > 100 µM (inactive) | > 100 µM (inactive) | > 100 µM (inactive) | > 100 µM (inactive) | > 100 µM (inactive) | > 100 µM (inactive) |  |
| Cc1ccc(NC(=O)CSC(N)=O)cc1C | > 100 µM (inactive) |  |  | 31 µM (inactive) | > 100 µM (inactive) | > 100 µM (inactive) | 93.8 µM (inactive) | > 100 µM | 37.9 µM (inactive) | > 100 µM (inactive) | > 100 µM (inactive) | > 100 µM (inactive) | > 100 µM (inactive) | 48.2 µM (inactive) | > 100 µM (inactive) | > 100 µM (inactive) | 30.8 µM (inactive) | 89.9 µM (inactive) | > 100 µM (inactive) |  |
| CCN(CC)CCNc1ccc2ncn3c4cc(O)ccc4c(=O)c1c23 | 5.71 µM (inactive) |  | 9.62 µM (inactive) |  | 2.84 µM (inactive) | 4.39 µM (inactive) | 5.65 µM (inactive) | 3.65 µM | 1.87 µM (inactive) |  | 11 µM (inactive) | 2.5 µM (inactive) | 1.57 µM (inactive) | 2.48 µM (inactive) | 3.37 µM (inactive) | 3.97 µM (inactive) | 0.668 µM (active) | 1.22 µM (inactive) | 0.519 µM (active) |  |
